One assay relates to Ba/F3 KIT mutant cells. Put plainly: Ba/F3 mutant KIT Cell Proliferation Assays (resazurin). The settings on record: Mus musculus, BaF3. It is filed as cell-based. In a few lines: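 IC50 values come from resazurin fluorescence (ex 540, em 600) after 5 h dye exposure, added as a 440 μM solution. Cells were IL-3-independent Ba/F3 expressing mutant KIT from a lentiviral vector, puromycin-selected.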

The next assay has as its target c-KIT kinase (uKIT) (Homo sapiens (Human), UniProt P10721). Put plainly: Biochemical Assay for uKIT (coupled pyruvate kinase/lactate dehydrogenase assay). The settings on record: Inhibition of biochemical activity of uKIT kinase; 1 mM ATP. A digest of the protocol: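 IC50 from percent inhibition of reaction rate over 2-3 h, relative to no-compound and known-inhibitor controls. KIT enzyme (16 nM or 4.36 nM, two sequences) ran with 1 mM ATP and 0.7 mg/mL PE4Y in Tris pH 7.5, 30° C; ATP turnover coupled to NADH loss at 340 nm.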

The test system of a further assay is GIST 430 cells. Put plainly: GIST 430 Cell Proliferation Assay (resazurin). The assay is classed as cell-based. The settings on record: Homo sapiens; GIST430 cell proliferation. A digest of the protocol:
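Five thousand cells per well were exposed to serially diluted compound in complete growth medium for 115 h at 37 degrees Celsius, 5% CO2. Resazurin was then added for a further 5 h, fluorescence read at 540 nm excitation/600 nm emission, and IC50 values calculated.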

[1] abbreviates: Ba/F3 KIT AYdup-V654A mutant cell proliferation, read-out: AYdup-V654A IC50.
Setting [2] is: Ba/F3 KIT exon11del-V654A mutant cell proliferation, read-out: exon11del-V654A IC50.
The mark [3] stands for this setting: Ba/F3 KIT exon11del-Y823D mutant cell proliferation, read-out: exon11del-Y823D IC50.

Like-named read-outs stand apart in the source and are kept apart here. Bounds are passed on as bounds.

Experimental findings from patent US20240116877A1, “KIT KINASE INHIBITORS AND METHODS OF USE THEREOF” (Deciphera Pharmaceuticals, LLC, priority 2021, published 2024) are described below.

Sequence of c-KIT kinase (uKIT) (P10721 other isoform, or with tags, fused parts or gaps): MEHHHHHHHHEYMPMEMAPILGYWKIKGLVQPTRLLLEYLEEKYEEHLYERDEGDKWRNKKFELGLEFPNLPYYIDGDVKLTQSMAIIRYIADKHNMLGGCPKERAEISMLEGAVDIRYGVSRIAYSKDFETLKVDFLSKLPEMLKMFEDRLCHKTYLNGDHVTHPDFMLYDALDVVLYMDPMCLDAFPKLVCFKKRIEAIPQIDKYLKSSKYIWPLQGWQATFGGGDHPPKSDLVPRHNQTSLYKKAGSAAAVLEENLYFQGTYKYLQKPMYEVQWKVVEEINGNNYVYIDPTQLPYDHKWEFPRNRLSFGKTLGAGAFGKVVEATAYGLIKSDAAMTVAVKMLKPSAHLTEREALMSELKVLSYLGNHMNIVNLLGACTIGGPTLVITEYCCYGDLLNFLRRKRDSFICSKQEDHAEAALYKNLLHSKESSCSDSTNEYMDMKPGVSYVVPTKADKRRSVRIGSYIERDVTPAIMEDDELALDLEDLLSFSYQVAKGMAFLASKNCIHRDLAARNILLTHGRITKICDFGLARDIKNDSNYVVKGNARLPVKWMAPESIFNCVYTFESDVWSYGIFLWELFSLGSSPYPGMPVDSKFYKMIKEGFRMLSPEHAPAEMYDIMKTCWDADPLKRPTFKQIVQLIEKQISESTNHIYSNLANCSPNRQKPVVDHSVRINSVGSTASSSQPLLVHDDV

Take `COCCOc1cc(OC)c2c(Nc3ccc(NC(=O)CC(=O)NC4CCC4)cc3)ncnc2c1` [Example 183]: the IC50 in the assay on Ba/F3 KIT mutant cells (setting [1]) was no more than 10 nM; in the assay on Ba/F3 KIT mutant cells (setting [2]) it was 10 to 100 nM; in the assay on Ba/F3 KIT mutant cells (setting [3]) it was 10 to 100 nM; at c-KIT kinase (uKIT), 10 to 100 nM; with GIST 430 cells, 10 to 100 nM.
For the compound `CCN(CC)C(=O)CC(=O)Nc1ccc(Nc2ncnc3cc(OCCOC)cc(F)c23)cc1` [Example 184], the IC50 was no more than 10 nM with Ba/F3 KIT mutant cells (setting [1]); 100 to 1000 nM with Ba/F3 KIT mutant cells (setting [2]); 100 to 1000 nM in the assay on Ba/F3 KIT mutant cells (setting [3]); 10 to 100 nM against c-KIT kinase (uKIT); 10 to 100 nM in the assay with GIST 430 cells.
As to `COCCOc1cc(F)c2c(Nc3ccc(NC(=O)CC(=O)N4CCOCC4)cc3)ncnc2c1` [Example 185], the IC50 in the assay on Ba/F3 KIT mutant cells (setting [1]) was greater than 1000 nM; with Ba/F3 KIT mutant cells (setting [2]) it was greater than 1000 nM; with Ba/F3 KIT mutant cells (setting [3]), greater than 1000 nM; on c-KIT kinase (uKIT), 100 to 1000 nM; in the assay with GIST 430 cells, 100 to 1000 nM.
On to `COCCOc1cc(F)c2c(Nc3ccc(NC(=O)CC(=O)N4CCCC4)cc3)ncnc2c1` [Example 186], for which the IC50 with Ba/F3 KIT mutant cells (setting [1]) is greater than 1000 nM; with Ba/F3 KIT mutant cells (setting [2]), greater than 1000 nM; in the assay on Ba/F3 KIT mutant cells (setting [3]) it was greater than 1000 nM; against c-KIT kinase (uKIT), 100 to 1000 nM; with GIST 430 cells, greater than 1000 nM.
As to `COCCOc1cc(F)c2c(Nc3ccc(NC(=O)CC(=O)N4CCCCC4)cc3)ncnc2c1` [Example 187], the IC50 in the assay on Ba/F3 KIT mutant cells (setting [1]) is 100 to 1000 nM; in the assay on Ba/F3 KIT mutant cells (setting [2]), greater than 1000 nM; in the assay on Ba/F3 KIT mutant cells (setting [3]) it was greater than 1000 nM; against c-KIT kinase (uKIT), 100 to 1000 nM; in the assay on GIST 430 cells, 100 to 1000 nM.
On to `COCCOc1cc(F)c2c(Nc3ccc(NC(=O)CC(=O)N4C5CCC4CC5)cc3)ncnc2c1` [Example 188], for which the IC50 in the assay on Ba/F3 KIT mutant cells (setting [1]) was 100 to 1000 nM; in the assay on Ba/F3 KIT mutant cells (setting [2]) it was 100 to 1000 nM; in the assay with Ba/F3 KIT mutant cells (setting [3]), 100 to 1000 nM; on c-KIT kinase (uKIT), 10 to 100 nM; in the assay with GIST 430 cells, 100 to 1000 nM.
Turning to `COCCOc1cc(F)c2c(Nc3ccc(NC(=O)CC(=O)N4CCCC4C(C)(C)C)cc3)ncnc2c1` (stereo not shown) [Example 189], the concentration for half-maximal inhibition (IC50) in the assay on Ba/F3 KIT mutant cells (setting [1]) lay in the range of 100 to 1000 nM; with Ba/F3 KIT mutant cells (setting [2]), 100 to 1000 nM; in the assay on Ba/F3 KIT mutant cells (setting [3]), 100 to 1000 nM; at c-KIT kinase (uKIT), 10 to 100 nM; with GIST 430 cells, 100 to 1000 nM.
Turning to `COCCCc1ccc2c(Nc3ccc(NC(=O)NCCC(C)(C)F)cc3)cnnc2c1` [Example 190, 1-(3-fluoro-3-methylbutyl)-3-(4-((7-(3-methoxypropyl)cinnolin-4-yl)amino)phenyl)urea], the IC50 with Ba/F3 KIT mutant cells (setting [1]), with Ba/F3 KIT mutant cells (setting [2]), in the assay on Ba/F3 KIT mutant cells (setting [3]), against c-KIT kinase (uKIT) and with GIST 430 cells was 10 to 100 nM in each case.
For the compound `COCCOc1cc(F)c2c(Nc3ccc(NC(=O)CC(=O)N4CC[C@H](C)C4)cc3)ncnc2c1` [Example 191], the IC50 in the assay with Ba/F3 KIT mutant cells (setting [1]) fell in the range of 100 to 1000 nM; in the assay on Ba/F3 KIT mutant cells (setting [2]), 100 to 1000 nM; in the assay with Ba/F3 KIT mutant cells (setting [3]), 100 to 1000 nM; against c-KIT kinase (uKIT), 10 to 100 nM; with GIST 430 cells, 100 to 1000 nM.
On to `COCCOc1cc(OC)c2c(Nc3ccc(NC(=O)CC(=O)N(C)C(C)(C)C)cc3)ncnc2c1` [Example 192], for which the IC50 with Ba/F3 KIT mutant cells (setting [1]) is 10 to 100 nM; with Ba/F3 KIT mutant cells (setting [2]) it was 100 to 1000 nM; in the assay on Ba/F3 KIT mutant cells (setting [3]) it was 10 to 100 nM; against c-KIT kinase (uKIT), 10 to 100 nM; with GIST 430 cells, 10 to 100 nM.
Turning to `CC(C)(F)CCNC(=O)Nc1ccc(Nc2ncnc3cc(OCCCN4CCOCC4)cc(F)c23)cc1` [Example 195], the IC50 was 10 to 100 nM in the assay on Ba/F3 KIT mutant cells (setting [1]); 10 to 100 nM with Ba/F3 KIT mutant cells (setting [2]); 10 to 100 nM with Ba/F3 KIT mutant cells (setting [3]); no more than 10 nM against c-KIT kinase (uKIT); no more than 10 nM in the assay on GIST 430 cells.
Turning to `COCCOc1cc(F)c2c(Nc3ccc(NC(=O)CC(=O)N4CCC[C@@H]4C)cc3)ncnc2c1` [Example 196], the IC50 lay within 10 to 100 nM in the assay with Ba/F3 KIT mutant cells (setting [1]); 100 to 1000 nM with Ba/F3 KIT mutant cells (setting [2]); 100 to 1000 nM with Ba/F3 KIT mutant cells (setting [3]); 10 to 100 nM on c-KIT kinase (uKIT); 10 to 100 nM in the assay on GIST 430 cells.
In the case of `COCCOc1cc(F)c2c(Nc3ccc(NC(=O)CC(=O)N4CCC[C@H]4C)cc3)ncnc2c1` [Example 197], the IC50 with Ba/F3 KIT mutant cells (setting [1]) is 10 to 100 nM; in the assay on Ba/F3 KIT mutant cells (setting [2]), 100 to 1000 nM; in the assay on Ba/F3 KIT mutant cells (setting [3]), 100 to 1000 nM; against c-KIT kinase (uKIT), 10 to 100 nM; with GIST 430 cells it was 10 to 100 nM.
Consider `COCCOc1cc(F)c2c(Nc3ccc(NC(=O)CC(=O)N4CC[C@@H](C)C4)cc3)ncnc2c1` [Example 198], for which the IC50 with Ba/F3 KIT mutant cells (setting [1]) lay in the range of 10 to 100 nM; in the assay on Ba/F3 KIT mutant cells (setting [2]), 100 to 1000 nM; in the assay with Ba/F3 KIT mutant cells (setting [3]) it was 100 to 1000 nM; on c-KIT kinase (uKIT) it was 10 to 100 nM; in the assay on GIST 430 cells it was 10 to 100 nM.
